Measurements: article PMC3926938 (Nature structural & molecular biology, 2012)
Square brackets hold non-standard residues; d marks the D form. Ends that are not written are not given here. Lys(Me3) = C[N+](C)(C)CCCC[C@H](N)C(=O)O

Key:
[1] = biological target: human PHF19-Tudor (residues 37–95) (human) (UniProt Q5T6S3); assay: NMR titration
human PHF19-Tudor = human PHF19-Tudor (Homo sapiens, UniProt Q5T6S3); assay: NMR chemical shift titration of Phf19-Tudor with histone H3 peptides; type: binding; details: for Kd increased by a factor (alanine mutant peptide vs wild-type peptide): NMR, point mutations in histone H3 amino acids 37–41
[2] = biological target: human PHF19-Tudor (residues 37–95) (human, UniProt Q5T6S3 37-95); assay: NMR titration

11-mer H3K36me3 peptide (31-ATGGVKme3KPHRY-41)
Kd [1]: 29 µM

31-ATGGV-Kme3-K-37 [H3_31–36]
binding to Phf19-Tudor (in words) (human PHF19-Tudor; NMR titration): unable to bind

34-GV-Kme3-APHRY-41 [H3 K37A]
Kd increased by a factor (alanine mutant peptide vs wild-type peptide) (human PHF19-Tudor): 2.1

34GV-Kme3-KPHAY-41 [H3 R10A]
Kd increased by a factor (alanine mutant peptide vs wild-type peptide) (human PHF19-Tudor): did not increase

34-GV-Kme3-KPHRA-41 [H3 Y41A]
Kd increased by a factor (alanine mutant peptide vs wild-type peptide) (human PHF19-Tudor): 1.6

H3K36me2-containing peptide (NMR)
Kd [1]: 295 µM

GV[Lys(Me3)]KPHRY [short H3K36me3 peptide (34-GV-Kme3-KPHRY-41; called the 7-mer histone H3_(35–41) in the results)]
Kd [2]: 44 µM
